According to US9676796B2, “Tricyclic benzoxaborole compound, preparation method and use thereof” (DONG-A ST CO., LTD., priority 2013, dated 2017):
Converted amounts (≈) assume the structure as drawn. Blank lines part the entries; values can stand above or below the compound they belong to.

What was measured:
N. gonorrhoeae = test: Antibacterial activity in vitro, agar plate dilution MIC; type: cell-based; conditions: Neisseria gonorrhoeae; clinical isolate, Mueller-Hinton agar dilution
[1] = test system: carbapenem-resistant Acinetobacter baumannii (A. baumannii); test: as above; type: cell-based; conditions: carbapenem-resistant clinical isolate, Mueller-Hinton agar dilution
Protocol: (§1) The antibacterial activity of the novel derivatives prepared by EXAMPLE 1 to 5 was evaluated in vitro by agar plate dilution method using Mueller-Hinton agar according to the NCCLS (National Committee for Clinical Laboratory Standards. 2000. Methods for dilution antimicrobial susceptibility tests for bacteria that grow aerobically. Approved standard, NCCLS document M7-A5, 5th ed, vol 20, no. 2. National Committee for Clinical Laboratory Standards, Wayne, Pa.). The test strains were clinical isolates from patients in general hospital in Korea from 2010 to 2013. The antibacterial activity was examined against important gram-negative bacteria including carbapenem-resistant Acinetobacter baumannii (A. baumannii), carbapenem-resistant Pseudomonas aeruginosa (P. aeruginosa), Escherichia coli (E. coli), and Klebsiella pneumonia (K. pneumonia) and was expressed as minimum inhibitory concentrations (MIC, μg/ml) in table 1.
(§2) The antibacterial activity of compounds (in Preparation Examples 1 to 4) and meropenem (MEPM, carbapenem-based antibiotics) were examined according to the same method shown as EXPERIMENTAL EXAMPLE 1.

[2] = test system: Escherichia coli (E. coli); test: as above; type: cell-based; conditions: clinical isolate, Mueller-Hinton agar dilution
Protocol: as §1, §2

[3] = test system: Klebsiella pneumoniae (K. pneumoniae); test: as above; type: cell-based; conditions: clinical isolate, Mueller-Hinton agar dilution
Protocol: as §1, §2

P. vulgaris = test: as above; type: cell-based; conditions: Proteus vulgaris; clinical isolate, Mueller-Hinton agar dilution
Protocol: as §1, §2

C. freundii = test: as above; type: cell-based; conditions: Citrobacter freundii; clinical isolate, Mueller-Hinton agar dilution
Protocol: as §1, §2

[4] = test system: carbapenem-resistant Pseudomonas aeruginosa (P. aeruginosa); test: as above; type: cell-based; conditions: carbapenem-resistant clinical isolate, Mueller-Hinton agar dilution
Protocol: as §1, §2

K. oxytoca = test: as above; type: cell-based; conditions: Klebsiella oxytoca; clinical isolate, Mueller-Hinton agar dilution
Protocol: as §1, §2

M. morganii = test: as above; type: cell-based; conditions: Morganella morganii; clinical isolate, Mueller-Hinton agar dilution
Protocol: as §1, §2

E. cloacae = test: as above; type: cell-based; conditions: Enterobacter cloacae; clinical isolate, Mueller-Hinton agar dilution
Protocol: as §1, §2

P. mirabilis = test: as above; type: cell-based; conditions: Proteus mirabilis; clinical isolate, Mueller-Hinton agar dilution
Protocol: as §1, §2

[5] = test system: Carbapenem-resistant Acinetobacter baumannii BAA-1605; test: Antibacterial activity in animal infection model (mouse systemic infection); type: in vivo; conditions: for ED50: Acinetobacter baumannii, BAA1605, read-out: ED50 (dose needed for the 50 percentage survival rate); for ED50 times as low as ED50 value of Compound C: mouse systemic infection, A. baumannii BAA-1605, oral
Protocol: Antibacterial activity of the compounds from the present invention was examined in vivo according to the method described in S. Choi et al (Antimicrob. Agents Chemother 56 (9) 4713-4717. 2012).
Carbapenem-resistant Acinetobacter baumannii BAA-1605 was used as test strain and the test strain was intraperitoneally injected into mouse to cause the systemic infection. After 1 hour of infection, the compounds of EXAMPLEs 1, 2, 3, 5 and the control compounds were administrated orally to the mice.

E. aerogenes = test: Antibacterial activity in vitro, agar plate dilution MIC; type: cell-based, Enterobacter aerogenes; conditions: Klebsiella aerogenes; clinical isolate, Mueller-Hinton agar dilution
Protocol: as §1, §2

S. marcescens = test: as above; type: cell-based; conditions: Serratia marcescens; clinical isolate, Mueller-Hinton agar dilution
Protocol: as §1

SMILES: C[C@H]1COB2O[C@H](CN)c3cccc(c32)O1.Cl [EXAMPLE 5, ((2S, 7S)-7-methyl-7,8-dihydro-2H-1,6,9-trioxa-9a-borabenzo[cd]azulen-2-yl)methanamine hydrochloride]
MIC (N. gonorrhoeae): 2 µg/mL
MIC [1]: 4 µg/mL
MIC [2]: 1 µg/mL
MIC [3]: 2 µg/mL
MIC (P. vulgaris): 2 µg/mL
MIC (C. freundii): 1 µg/mL
MIC [4]: 8 µg/mL
MIC (K. oxytoca): 2 µg/mL
MIC (M. morganii): 0.5 µg/mL
MIC (E. cloacae): 1 µg/mL
MIC (P. mirabilis): 2 µg/mL
ED50 [5]: 1.36 mg/kg
ED50 times as low as ED50 value of Compound C [5]: 6.69 times
MIC (E. aerogenes): 4 µg/mL
MIC (S. marcescens): 4 µg/mL

SMILES: Cl.NC[C@H]1OB2O[C@H](CO)COc3cccc1c32 [Compound C, ((2S,8R)-2-(aminomethyl)-7,8-dihydro-2H-1,6,9-trioxa-9a-borabenzo[cd]azulen-8-yl)methanol hydrochloride, reference compound]
MIC [1]: 4 µg/mL
MIC [2]: 2 µg/mL
MIC [3]: 2 µg/mL
MIC (P. vulgaris): 8 µg/mL
MIC (C. freundii): 2 µg/mL
MIC [4]: 8 µg/mL
MIC (K. oxytoca): 2 µg/mL
MIC (M. morganii): 2 µg/mL
MIC (E. cloacae): 2 µg/mL
MIC (P. mirabilis): 8 µg/mL
ED50 [5]: 9.07 mg/kg
MIC (E. aerogenes): 4 µg/mL

SMILES: Cl.NCC1OB2OCC(CO)Oc3cccc1c32 (centres unmarked) [compound D, (2-(aminomethyl)-7,8-dihydro-2H-1,6,9-trioxa-9a-borabenzo[cd]azulen-7-yl)methanol hydrochloride, reference compound]
MIC [1]: 16 µg/mL
MIC [2]: 8 µg/mL
MIC [3]: 16 µg/mL
MIC (P. vulgaris): 16 µg/mL
MIC (C. freundii): 4 µg/mL
MIC [4]: 64 µg/mL
MIC (K. oxytoca): 8 µg/mL
MIC (M. morganii): 8 µg/mL
MIC (E. cloacae): 8 µg/mL
MIC (P. mirabilis): 16 µg/mL
MIC (E. aerogenes): 8 µg/mL

SMILES: CC1COB2O[C@H](CN)c3cccc(c32)O1.Cl (stereo partly drawn) [EXAMPLE 2, ((2S)-7-methyl-7,8-dihydro-2H-1,6,9-trioxa-9a-borabenzo[cd]azulen-2-yl)methanamine hydrochloride]
MIC (N. gonorrhoeae): 1 µg/mL
MIC [1]: 2 µg/mL
MIC [2]: 1 µg/mL
MIC [3]: 2 µg/mL
MIC (P. vulgaris): 2 µg/mL
MIC (C. freundii): 1 µg/mL
MIC [4]: 8 µg/mL
MIC (K. oxytoca): 2 µg/mL
MIC (M. morganii): 1 µg/mL
MIC (E. cloacae): 1 µg/mL
MIC (P. mirabilis): 2 µg/mL
ED50 [5]: 1.36 mg/kg
ED50 times as low as ED50 value of Compound C [5]: 6.69 times
MIC (E. aerogenes): 2 µg/mL
MIC (S. marcescens): 4 µg/mL

SMILES: CC1COB2OC(CN)c3cccc(c32)O1.Cl (centres unmarked) [EXAMPLE 1, (7-methyl-7,8-dihydro-2H-1,6,9-trioxa-9a-borabenzo[cd]azulen-2-yl)methanamine hydrochloride]
MIC (N. gonorrhoeae): 2 µg/mL
MIC [1]: 4 µg/mL
MIC [2]: 2 µg/mL
MIC [3]: 2 µg/mL
MIC (P. vulgaris): 4 µg/mL
MIC (C. freundii): 1 µg/mL
MIC [4]: 32 µg/mL
MIC (K. oxytoca): 2 µg/mL
MIC (M. morganii): 2 µg/mL
MIC (E. cloacae): 2 µg/mL
MIC (P. mirabilis): 2 µg/mL
ED50 [5]: 1.75 mg/kg
ED50 times as low as ED50 value of Compound C [5]: 5.18 times
MIC (E. aerogenes): 4 µg/mL
MIC (S. marcescens): 4 µg/mL

SMILES: C[C@@H]1COB2O[C@H](CN)c3cccc(c32)O1.Cl [EXAMPLE 3, ((2S,7R)-7-methyl-7,8-dihydro-2H-1,6,9-trioxa-9a-borabenzo[cd]azulen-2-yl)methanamine hydrochloride]
MIC (N. gonorrhoeae): 0.5 µg/mL
MIC [1]: 1 µg/mL
MIC [2]: 1 µg/mL
MIC [3]: 2 µg/mL
MIC (P. vulgaris): 2 µg/mL
MIC (C. freundii): 1 µg/mL
MIC [4]: 16 µg/mL
MIC (K. oxytoca): 1 µg/mL
MIC (M. morganii): 1 µg/mL
MIC (E. cloacae): 1 µg/mL
MIC (P. mirabilis): 2 µg/mL
ED50 [5]: 0.909 mg/kg
ED50 times as low as ED50 value of Compound C [5]: 9.98 times
MIC (E. aerogenes): 2 µg/mL
MIC (S. marcescens): 4 µg/mL

SMILES: Cl.NCC1OB2OCCOc3cccc1c32 (centres unmarked) [Compound A, (7,8-dihydro-2H-1,6,9-trioxa-9a-borabenzo[cd]azulen-2-yl)methanamine, reference compound]
MIC [1]: > 128 µg/mL
MIC [2]: 2 µg/mL
MIC [3]: 4 µg/mL
MIC (P. vulgaris): 32 µg/mL
MIC (C. freundii): 1 µg/mL
MIC [4]: 8 µg/mL
MIC (K. oxytoca): 2 µg/mL
MIC (M. morganii): 2 µg/mL
MIC (E. cloacae): 2 µg/mL
MIC (P. mirabilis): 8 µg/mL
ED50 [5]: > 20 mg/kg
MIC (E. aerogenes): 2 µg/mL

SMILES: CC1COc2cccc3c2B(O1)OC3CN.Cl (centres unmarked) [Compound B, (8-methyl-7,8-dihydro-2H-1,6,9-trioxa-9a-borabenzo[cd]azulen-2-yl)methanamine hydrochloride, reference compound]
MIC [1]: 8 µg/mL
MIC [2]: 2 µg/mL
MIC [3]: 4 µg/mL
MIC (P. vulgaris): 16 µg/mL
MIC (C. freundii): 1 µg/mL
MIC [4]: 64 µg/mL
MIC (K. oxytoca): 2 µg/mL
MIC (M. morganii): 4 µg/mL
MIC (E. cloacae): 2 µg/mL
MIC (P. mirabilis): 8 µg/mL
ED50 [5]: > 20 mg/kg
MIC (E. aerogenes): 2 µg/mL

MIC [1]: 32 µg/mL (≈ 83.4 µM)
MIC [2]: < 0.0313 µg/mL
MIC [3]: < 0.0313 µg/mL
MIC (P. vulgaris): 0.0625 µg/mL (≈ 0.163 µM)
MIC (C. freundii): < 0.0313 µg/mL
MIC [4]: 32 µg/mL (≈ 83.4 µM)
MIC (K. oxytoca): < 0.0313 µg/mL
MIC (M. morganii): 0.125 µg/mL (≈ 0.326 µM)
MIC (E. cloacae): < 0.0313 µg/mL
MIC (P. mirabilis): 0.0625 µg/mL (≈ 0.163 µM)
MIC (E. aerogenes): < 0.0313 µg/mL
SMILES: C[C@@H](O)[C@H]1C(=O)N2C(C(=O)O)=C(S[C@@H]3CN[C@H](C(=O)N(C)C)C3)[C@H](C)[C@H]12 [MEPM, meropenem, reference compound]

SMILES: C[C@@H]1COB2O[C@H](CN)c3cccc(c32)O1 [compound 4, ((2S,7R)-7-methyl-7,8-dihydro-2H-1,6,9-trioxa-9a-borabenzo[cd]azulen-2-yl) methanamine]
MIC (N. gonorrhoeae): 0.5 µg/mL (≈ 2.28 µM)
MIC [1]: 1 µg/mL (≈ 4.57 µM)
MIC [2]: 1 µg/mL (≈ 4.57 µM)
MIC [3]: 1 µg/mL (≈ 4.57 µM)
MIC (P. vulgaris): 1 µg/mL (≈ 4.57 µM)
MIC (C. freundii): 0.5 µg/mL (≈ 2.28 µM)
MIC [4]: 8 µg/mL (≈ 36.5 µM)
MIC (K. oxytoca): 1 µg/mL (≈ 4.57 µM)
MIC (M. morganii): 0.5 µg/mL (≈ 2.28 µM)
MIC (E. cloacae): 1 µg/mL (≈ 4.57 µM)
MIC (P. mirabilis): 1 µg/mL (≈ 4.57 µM)
MIC (E. aerogenes): 1 µg/mL (≈ 4.57 µM)
MIC (S. marcescens): 2 µg/mL (≈ 9.13 µM)
